# Measured values from US20260007758A1, “SO[…]-2 RECEPTOR (SST2R) NON-PEPTIDE DRUG CONJUGATES AND USES THEREOF” (Crinetics Pharmaceuticals, Inc., priority 2024, published 2026).
# *1 amine or outer side, *2 acyl side, *3 side chain or, on linkers, in order; H or OH if unused. Where a SMILES comes first, the peptide text is derived from it. [ ]: non-standard residue; d: D form. The star is where a group is joined. X4 = Cc1cc(F)cc(-c2cnc(NCCNC(=O)CCOCCC(=O)*)c(-c3nc4ccc(Cl)cc4[nH]3)c2N2CCC(N)CC2)c1; Dolaproine = CO[C@@H]([C@@H]1CCCN1)[C@@H](C)C(=O)O; Dil = CC[C@H](C)[C@H](NC)[C@@H](CC(=O)O)OC; PABC = O=C(OCc1ccc(N[*:1])cc1)[*:2]; X2 = C[C@@H](N*)[C@@H](O)c1ccccc1; Cit = NC(=O)NCCC[C@H](N)C(=O)O; NMeV = CN[C@H](C(=O)O)C(C)C; PEG1 = NCCOCCC(=O)O
# Key:
# Type in all cases: cell-based
# [1] = tested on: NCI-H524 human small cell lung cancer cells; assay: H524 assay: inhibition of cell proliferation (CellTiter Glo); settings: 2 h treatment, washout, additional 70 h incubation
# Method in brief: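 NCI-H524 cells were exposed for 2 h to NDC in an 11-point two-fold series starting at 1 uM. The drug was then washed out and cells grew a further 70 h. CellTiter Glo luminescence gave % inhibition versus untreated control, and IC50 came from a four-parameter nonlinear regression.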
# [2] = molecular target: T1, human somatostatin receptor subtype 2 (Homo sapiens, UniProt P30874); assay: Functional assay for SSTR2 agonists (HTRF cAMP); settings: CHO-K1 cells stably expressing human SST2; NKH477-stimulated cAMP; 20 min at 37 C; read-out: hSST2 cAMP Avg EC50
# T1 construct: expressed in transfected cells
# Method in brief: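 CHO-K1 cells stably expressing human SSTR2 treated with compound (typically 0-10,000 nM final) for 20 min at 37 °C. Lysate cAMP measured by HTRF (665/620 nm ratio), converted via standard curve; EC50 from cAMP vs concentration.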
# SST2 = molecular target: T2, SST2 (Homo sapiens, UniProt P30874); assay: PathHunter CHO-K1 SST2 Internalization Assay; settings: PathHunter CHO-K1 SST2 cells; 90 min at 37 C; luminescence; read-out: Internalization EC50
# T2 construct: host or cells: PathHunter CHO-K1 SST2 cells
# Method in brief: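 CHO-K1 cells expressing human SST2, 2500 cells/well, grown 48 h, then exposed 90 min at 37 C to 11-point 1:3 NDC dilutions (final top 10 uM). Beta-Glo luminescence after 60 min at room temperature; four-parameter IC50, duplicate mean, background-corrected.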
# T1 sequence (P30874 whole entry): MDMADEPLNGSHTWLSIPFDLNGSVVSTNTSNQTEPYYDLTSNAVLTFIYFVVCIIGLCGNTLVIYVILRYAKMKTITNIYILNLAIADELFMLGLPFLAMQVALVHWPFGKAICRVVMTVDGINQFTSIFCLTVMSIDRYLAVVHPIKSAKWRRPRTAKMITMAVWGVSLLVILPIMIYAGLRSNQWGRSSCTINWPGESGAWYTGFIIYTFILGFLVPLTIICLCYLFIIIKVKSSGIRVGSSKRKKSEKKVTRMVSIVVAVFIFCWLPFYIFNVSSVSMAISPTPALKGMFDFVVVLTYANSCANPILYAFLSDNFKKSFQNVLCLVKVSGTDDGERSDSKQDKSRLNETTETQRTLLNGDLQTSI
# T2 sequence (P30874 whole entry): as above
Structure (SMILES),EC50 [1],EC50 [2],EC50 (SST2)
CC[C@H](C)[C@@H]([C@@H](CC(=O)N1CCC[C@H]1[C@H](OC)[C@@H](C)C(=O)N[C@H](C)[C@@H](O)c1ccccc1)OC)N(C)C(=O)[C@@H](NC(=O)[C@H](C(C)C)N(C)C(=O)OCc1ccc(NC(=O)[C@H](CCCNC(N)=O)NC(=O)[C@@H](NC(=O)[C@H](Cc2c[nH]cn2)NC(=O)CCOCCC(=O)NCCNc2ncc(-c3cc(C)cc(F)c3)c(N3CCC(N)CC3)c2-c2nc3ccc(Cl)cc3[nH]2)C(C)C)c(O[C@@H]2C[C@H](C(=O)NCC(=O)O)[C@@H](O)[C@H](O)[C@H]2O)c1)C(C)C [Compound 212],20 nM,0.088 nM,4.5 nM
CC[C@H](C)[C@@H]([C@@H](CC(=O)N1CCC[C@H]1[C@H](OC)[C@@H](C)C(=O)N[C@H](C)[C@@H](O)c1ccccc1)OC)N(C)C(=O)[C@@H](NC(=O)[C@H](C(C)C)N(C)C(=O)OCc1ccc(NC(=O)[C@H](C)NC(=O)[C@@H](NC(=O)C[C@@H](N)C(=O)NCCOCCOCCC(=O)NCCNc2ncc(-c3cc(C)cc(F)c3)c(N3CCC(N)CC3)c2-c2nc3ccc(Cl)cc3[nH]2)C(C)C)c(O[C@@H]2O[C@H](C(=O)O)[C@@H](O)[C@H](O)[C@H]2O)c1)C(C)C [Compound 136],540 nM,0.29 nM,3.5 nM
CC[C@H](C)[C@@H]([C@@H](CC(=O)N1CCC[C@H]1[C@H](OC)[C@@H](C)C(=O)N[C@H](C)[C@@H](O)c1ccccc1)OC)N(C)C(=O)[C@@H](NC(=O)[C@H](C(C)C)N(C)C(=O)OCc1ccc(NC(=O)[C@H](CCCNC(N)=O)NC(=O)[C@@H](NC(=O)CN(C)C(=O)CCOCCC(=O)NCCNc2ncc(-c3cc(C)cc(F)c3)c(N3CCC(N)CC3)c2-c2nc3ccc(Cl)cc3[nH]2)C(C)C)cc1C(=O)NCC(=O)O)C(C)C [Compound 71],100 nM,0.14 nM,7.5 nM
CC[C@H](C)[C@@H]([C@@H](CC(=O)N1CCC[C@H]1[C@H](OC)[C@@H](C)C(=O)N[C@H](C)[C@@H](O)c1ccccc1)OC)N(C)C(=O)[C@@H](NC(=O)[C@H](C(C)C)N(C)C(=O)OCc1ccc(NC(=O)[C@H](CCCNC(N)=O)NC(=O)[C@@H](NC(=O)CCOCCC(=O)NCCNc2ncc(-c3cc(C)cc(F)c3)c(N3CCC(N)CC3)c2-c2nc3ccc(Cl)cc3[nH]2)C(C)C)c(O[C@@H]2O[C@H](C(=O)NCCCCCNC(=O)CCCCc3ccc(I)cc3)[C@@H](O)[C@H](O)[C@H]2O)c1)C(C)C [Compound 225],18 nM,0.26 nM,1.9 nM
CC[C@H](C)[C@@H]([C@@H](CC(=O)N1CCC[C@H]1[C@H](OC)[C@@H](C)C(=O)N[C@H](C)[C@@H](O)c1ccccc1)OC)N(C)C(=O)[C@@H](NC(=O)[C@H](C(C)C)N(C)C(=O)OCc1ccc(NC(=O)[C@H](CCCNC(N)=O)NC(=O)[C@@H](NC(=O)CCOCCC(=O)NCCNc2ncc(-c3cc(C)cc(F)c3)c(N3CCC(N)CC3)c2-c2nc3c(F)c(F)ccc3[nH]2)C(C)C)c(O[C@@H]2O[C@H](C(=O)O)[C@@H](O)[C@H](O)[C@H]2O)c1)C(C)C [Compound 110],120 nM,1 nM,23 nM
CC[C@H](C)[C@@H]([C@@H](CC(=O)N1CCC[C@H]1[C@H](OC)[C@@H](C)C(=O)N[C@H](C)[C@@H](O)c1ccccc1)OC)N(C)C(=O)[C@@H](NC(=O)[C@H](C(C)C)N(C)C(=O)OCc1ccc(NC(=O)[C@H](CCCNC(N)=O)NC(=O)[C@@H](NC(=O)C[C@@H](N)C(=O)NCCOCCC(=O)NCCNc2ncc(-c3cc(C)cc(F)c3)c(N3CCC(N)CC3)c2-c2nc3ccc(Cl)cc3[nH]2)C(C)C)c(O[C@@H]2O[C@H](C(=O)NCC(=O)O)[C@@H](O)[C@H](O)[C@H]2O)c1)C(C)C [Compound 35],16 nM,0.1 nM,5 nM
CC[C@H](C)[C@@H]([C@@H](CC(=O)N1CCC[C@H]1[C@H](OC)[C@@H](C)C(=O)N[C@H](C)[C@@H](O)c1ccccc1)OC)N(C)C(=O)[C@@H](NC(=O)[C@H](C(C)C)N(C)C(=O)OCc1ccc(NC(=O)[C@H](C)NC(=O)[C@@H](NC(=O)CCOCCOCCOCCOCCC(=O)NCCNc2ncc(-c3cc(C)cc(F)c3)c(N3CCC(N)CC3)c2-c2nc3ccc(Cl)cc3[nH]2)C(C)C)cc1C(=O)NCC(=O)O)C(C)C [Compound 69],36 nM,0.16 nM,5.6 nM
CC[C@H](C)[C@@H]([C@@H](CC(=O)N1CCC[C@H]1[C@H](OC)[C@@H](C)C(=O)N[C@H](C)[C@@H](O)c1ccccc1)OC)N(C)C(=O)[C@@H](NC(=O)[C@H](C(C)C)N(C)C(=O)OCc1ccc(NC(=O)[C@H](CCCNC(N)=O)NC(=O)[C@@H](NC(=O)CCOCCNC(=O)[C@H](CCC(=O)O)NC(=O)[C@H](CCC(N)=O)NC(=O)CCOCCC(=O)NCCNc2ncc(-c3cc(C)cc(F)c3)c(N3CCC(N)CC3)c2-c2nc3ccc(Cl)cc3[nH]2)C(C)C)cc1)C(C)C [Compound 191] (X4-QE[PEG1]V[Cit][PABC][NMeV]V[Dil][Dolaproine]-X2),1700 nM,1.9 nM,38 nM
CC[C@H](C)[C@@H]([C@@H](CC(=O)N1CCC[C@H]1[C@H](OC)[C@@H](C)C(=O)N[C@H](C)[C@@H](O)c1ccccc1)OC)N(C)C(=O)[C@@H](NC(=O)[C@H](C(C)C)N(C)C(=O)OCc1ccc(NC(=O)[C@H](CCCNC(N)=O)NC(=O)[C@@H](NC(=O)CCOCCOCCC(=O)NCCNc2ncc(-c3cc(C)cc(F)c3)c(N3CCC(N)CC3)c2-c2nc3ccc(Cl)cc3[nH]2)C(C)C)cc1C(=O)NCCCCCCCCCCC(=O)O)C(C)C [Compound 75],440 nM,0.21 nM,2.4 nM
CC[C@H](C)[C@@H]([C@@H](CC(=O)N1CCC[C@H]1[C@H](OC)[C@@H](C)C(=O)N[C@H](C)[C@@H](O)c1ccccc1)OC)N(C)C(=O)[C@@H](NC(=O)[C@H](C(C)C)N(C)C(=O)OCc1ccc(NC(=O)[C@H](C)NC(=O)[C@@H](NC(=O)CCOCCC(=O)NCCNc2ncc(-c3cc(C)cc(F)c3)c(N3CC[C@H]4NCCO[C@@H]4C3)c2-c2nc3c(F)cc(F)cc3[nH]2)C(C)C)c(O[C@@H]2O[C@H](C(=O)O)[C@@H](O)[C@H](O)[C@H]2O)c1)C(C)C [Compound 114],4600 nM,85 nM,850 nM
CC[C@H](C)[C@@H]([C@@H](CC(=O)N1CCC[C@H]1[C@H](OC)[C@@H](C)C(=O)N[C@H](C)[C@@H](O)c1ccccc1)OC)N(C)C(=O)[C@@H](NC(=O)[C@H](C(C)C)N(C)C(=O)OCc1ccc(NC(=O)[C@H](CCCNC(N)=O)NC(=O)[C@@H](NC(=O)[C@H](CCc2nnn[nH]2)NC(=O)CCOCCC(=O)NCCNc2ncc(-c3cc(C)cc(F)c3)c(N3CCC(N)CC3)c2-c2nc3ccc(Cl)cc3[nH]2)C(C)C)cc1)C(C)C [Compound 176],620 nM,0.28 nM,3.7 nM
CC[C@H](C)[C@@H]([C@@H](CC(=O)N1CCC[C@H]1[C@H](OC)[C@@H](C)C(=O)N[C@H](C)[C@@H](O)c1ccccc1)OC)N(C)C(=O)[C@@H](NC(=O)[C@H](C(C)C)N(C)C(=O)OCc1ccc(NC(=O)[C@H](CCCNC(N)=O)NC(=O)[C@@H](NC(=O)c2cc(OCCOCCOCCOCCOCCC(=O)NCCNc3ncc(-c4cc(C)cc(F)c4)c(N4CCC(N)CC4)c3-c3nc4ccc(Cl)cc4[nH]3)cc(C(=O)NCC(=O)O)c2)C(C)C)cc1)C(C)C [Compound 161],63 nM,0.32 nM,9.1 nM
CC[C@H](C)[C@@H]([C@@H](CC(=O)N1CCC[C@H]1[C@H](OC)[C@@H](C)C(=O)N[C@H](C)[C@@H](O)c1ccccc1)OC)N(C)C(=O)[C@@H](NC(=O)[C@H](C(C)C)N(C)C(=O)OCc1ccc(NC(=O)[C@H](CCCNC(N)=O)NC(=O)[C@@H](NC(=O)C2(NC(=O)CCCC(=O)N(C)CC(=O)NCCNc3ncc(-c4cc(C)cc(F)c4)c(N4CCC(N)CC4)c3-c3nc4ccc(Cl)cc4[nH]3)CCN(CC(=O)O)CC2)C(C)C)cc1)C(C)C [Compound 173],52 nM,0.24 nM,19 nM
CC[C@H](C)[C@@H]([C@@H](CC(=O)N1CCC[C@H]1[C@H](OC)[C@@H](C)C(=O)N[C@H](C)[C@@H](O)c1ccccc1)OC)N(C)C(=O)[C@@H](NC(=O)[C@H](C(C)C)N(C)C(=O)OCc1ccc(NC(=O)[C@H](CCCNC(N)=O)NC(=O)[C@@H](NC(=O)[C@H](NC(=O)CCOCCC(=O)NCCNc2ncc(-c3cc(C)cc(F)c3)c(N3CCC(N)CC3)c2-c2nc3ccc(Cl)cc3[nH]2)c2cnn(C)c2)C(C)C)c(OCC(=O)O)c1)C(C)C [Compound 204],30 nM,0.14 nM,9.2 nM
CC[C@H](C)[C@@H]([C@@H](CC(=O)N1CCC[C@H]1[C@H](OC)[C@@H](C)C(=O)N[C@H](C)[C@@H](O)c1ccccc1)OC)N(C)C(=O)[C@@H](NC(=O)[C@H](C(C)C)N(C)C(=O)OCc1ccc(NC(=O)[C@H](CCCNC(N)=O)NC(=O)[C@@H](NC(=O)CCOCCC(=O)NCCNc2ncc(-c3cc(C)cc(F)c3)c(N3CCC(N)CC3)c2-c2nc3ccc(Cl)cc3[nH]2)C(C)C)c(O[C@@H]2O[C@H](C(=O)NCCN)[C@@H](O)[C@H](O)[C@H]2O)c1)C(C)C [Compound 40],1.7 nM,0.2 nM,8.7 nM
